In article PMC6379706, “Characterization of the interactions of chemically-modified therapeutic nucleic acids with plasma proteins using a fluorescence polarization assay” (Nucleic Acids Research, 2018):

Assays:
transferrin = target: T1, transferrin (Homo sapiens, UniProt P02787); assay: fluorescence polarization, direct titration of dye with protein; type: binding
T1 construct: gene TF; purchased from Sigma Aldrich

human serum albumin = target: T2, human serum albumin (Homo sapiens, UniProt P02768); assay: as above; type: binding
T2 construct: gene ALB; purchased human albumin, EMD Millipore (Calbiochem)
T2 sequence (P02768 25-609): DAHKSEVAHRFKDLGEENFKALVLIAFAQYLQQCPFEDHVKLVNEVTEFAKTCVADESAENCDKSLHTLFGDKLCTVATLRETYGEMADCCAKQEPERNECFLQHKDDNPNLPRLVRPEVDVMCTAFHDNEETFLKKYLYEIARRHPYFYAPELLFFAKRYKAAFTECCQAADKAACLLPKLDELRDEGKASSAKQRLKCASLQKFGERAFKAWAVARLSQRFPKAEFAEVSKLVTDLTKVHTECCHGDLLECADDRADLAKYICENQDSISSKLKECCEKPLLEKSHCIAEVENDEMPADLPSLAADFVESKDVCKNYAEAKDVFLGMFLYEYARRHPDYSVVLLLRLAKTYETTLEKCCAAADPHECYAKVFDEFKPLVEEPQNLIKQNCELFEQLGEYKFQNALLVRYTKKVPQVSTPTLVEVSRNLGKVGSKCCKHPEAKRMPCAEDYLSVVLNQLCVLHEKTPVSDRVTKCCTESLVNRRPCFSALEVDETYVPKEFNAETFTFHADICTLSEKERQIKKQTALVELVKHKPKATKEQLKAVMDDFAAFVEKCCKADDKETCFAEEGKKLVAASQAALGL

T1 sequence (P02787 20-698): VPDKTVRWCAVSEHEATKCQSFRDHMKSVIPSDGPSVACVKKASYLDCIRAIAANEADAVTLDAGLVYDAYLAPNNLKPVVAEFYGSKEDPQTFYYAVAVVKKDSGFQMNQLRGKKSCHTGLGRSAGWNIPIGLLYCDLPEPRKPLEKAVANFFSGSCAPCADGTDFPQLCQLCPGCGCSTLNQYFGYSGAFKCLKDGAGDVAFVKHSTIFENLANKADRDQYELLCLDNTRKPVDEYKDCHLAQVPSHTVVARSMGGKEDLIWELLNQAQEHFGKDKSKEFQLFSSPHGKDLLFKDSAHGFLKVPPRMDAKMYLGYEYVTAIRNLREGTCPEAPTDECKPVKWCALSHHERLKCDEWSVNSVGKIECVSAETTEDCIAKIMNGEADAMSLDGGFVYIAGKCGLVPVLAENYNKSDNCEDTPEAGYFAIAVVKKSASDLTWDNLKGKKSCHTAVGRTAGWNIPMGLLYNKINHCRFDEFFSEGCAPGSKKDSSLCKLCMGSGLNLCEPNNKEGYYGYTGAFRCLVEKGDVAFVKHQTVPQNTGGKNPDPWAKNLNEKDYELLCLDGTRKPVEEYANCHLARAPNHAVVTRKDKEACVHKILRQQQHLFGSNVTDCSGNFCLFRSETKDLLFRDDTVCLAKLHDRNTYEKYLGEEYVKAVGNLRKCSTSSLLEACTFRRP

| Kd (transferrin) [µM] | Kd (human serum albumin) [µM] | Compound |
| --- | --- | --- |
| 380 | 791 | N=c1ccc2c(-c3ccc(C(=O)O)cc3C(=O)O)c3ccc(N)c(S(=O)(=O)O)c3oc-2c1S(=O)(=O)O [Alexa Fluor 488] |
| 46.1 | 44.8 | CN1/C(=C/C=C/C=C/C2=[N+](CCCCCC(=O)O)c3ccccc3C2(C)C)C(C)(C)c2ccccc21 [Cy5] |
| 502 | 138 | O=C(O)c1ccccc1-c1c2ccc(=O)cc-2oc2cc(O)ccc12 [fluorescein] |
| 2020 | 568 | CN1/C(=C/C=C/C=C/C2=[N+](CCCCCC(=O)O)c3ccc(S(=O)(=O)O)cc3C2(C)C)C(C)(C)c2cc(S(=O)(=O)O)ccc21 [sCy5] |
